The values that follow come from patent US20230159445A1, “STAT INHIBITORY COMPOUNDS AND COMPOSITIONS” (JANPIX LIMITED, priority 2020, published 2023).

The IC50 is the concentration that inhibits the measured activity by half.

The test system of one data set is MV4-11 cells. The data set is described as follows: MV4-11 Cell Cytotoxicity Assay (CellTiter-Blue, 72 h). It is filed as cell-based, human. The settings on record: Homo sapiens; MV4-11 cells, 72 h, CellTiter-Blue; read-out: IC50- MV-4-11. Put shortly: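 Cells seeded 24 h before treatment, then exposed 72 h at 37° C, 5% CO2 to inhibitors in triplicate, top concentration 50 μM with 1:2 serial dilutions (0.5% DMSO vehicle). Viability read by CellTiter-Blue fluorescence at 560/590 nm after 1 h.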
A general note: Resazurin is reduced to fluorescent resorufin, in cell work by metabolically active cells.

Data set [1] can be described thus: Reactivity Profiling with Glutathione (GSH), half-life by HPLC. The settings on record: 5 mM glutathione, 25° C., HPLC.

For `CN(C(=O)CN(Cc1ccccc1C(F)(F)F)S(=O)(=O)c1c(F)c(F)c(F)c(F)c1F)c1ccc(C(=O)O)cc1N1CCOCC1` [Compound 2017, 4-(N-methyl-2-(N-(2-(trifluoromethyl)benzyl)-(2,3,4,5,6-pentafluoro-phenyl)sulfonamido)acetami-do)-3-morpholinobenzoic acid], in the data set with MV4-11 cells, the half-maximal inhibitory concentration (IC50) was 1 to 3.16 µM. In addition, the “Tl/2- GSH” value in data set [1] was “D (0.1<D<142)”.
The corresponding values for `CC(C)(C)c1cc(CN(C(=O)CN(Cc2ccc(Cl)cc2)S(=O)(=O)c2c(F)c(F)c(F)c(F)c2F)c2ccc(C(=O)O)c(O)c2)cc(C2CCC2)c1` [Compound 2020, 4-(N-(3-(tert-butyl)-5-cyclobutylbenzyl)-2-(N-(4-chlorobenzyl)-(2,3,4,5,6-pentafluorophenyl)sulfon-amido)acetamido)-2-hydroxybenzoic acid] are 3.16 to 100 µM and “B (247≤B<554)”.
